Test results published in US20030105595A1, “Chi square tests for gene expression” (priority 2001, published 2003).

Key:
Test in all cases: multi-sample expression analysis, band intensity
Type in all cases: in vivo
Conditions in all cases: Pooled
[1] = tested on: band b1i0_60.7
Text: (§1) To practice the invention, one skilled in the art obtains a source of biological samples, as well as expression information about the biological samples, i.e., expression information relative to one or more genes or polypeptides encoded therein. Data is collected for a particular phenotype appearing within a given population under study, whereby expression of that phenotype is to be determined within the biological sample under study. The phenotype is correlated to a specific genotype, which is then represented as a band with a given intentity, thus indicative of gene expression levels, and is then compared to control samples. Alternatively, the response of a gene to dosage with one or more drugs is determined by band intensity. The standard deviation from the mean (StdDev) is calculated for the control samples, and is fit to functional form in the following equation: […]
(§2) A multi-sample expression analysis was run using the program described in Example 1. For each drug run, only runs for genes producing bands with a p-value<10^−5 in at least 2 of the following 3 comparisons were selected: low dose versus vehicle, high dose versus vehicle and low dose versus high dose. […] Since clusters found using all 13K bands included some of the best 2K bands, it was concluded that no essential signal was lost (see FIGS. 3 and 4). […] A comparison using the same analytic tests on only the best 2K bands. It can be seen that the Chi Square metric provides a better distinction between low and high doses than the correlation metric, which is not able to distinguish between the low dose and the high dose (see FIG. 6). The low-dose/high dose statistical variation is more pronounced when only the best 2K bands are selected.

[2] = tested on: band b1i0_63.7
Text: as §1, §2

[3] = tested on: band b1i0_69.4
Text: as §1, §2

[4] = tested on: band b1i0_54.5
Text: as §1, §2

[5] = tested on: band b1i0_57.4
Text: as §1, §2

[6] = tested on: band b1i0_53.0
Text: as §1, §2

[7] = tested on: band b1i0_51.7
Text: as §1, §2

[8] = tested on: band b1i0_62.5
Text: as §1, §2

SMILES: O=NN(CCCl)C(=O)NCCCl [BCNU]
- band intensity b1i0_60.7 ([1]; High dose, 1d): 78.55
- band intensity b1i0_60.7 ([1]; High dose, 3d): 115.4
- band intensity b1i0_60.7 ([1]; Low dose, 1d): 88.97
- band intensity b1i0_60.7 ([1]; Low dose, 3d): 80.09
- band intensity b1i0_60.7 ([1]; Low dose, 7d): 96.79
- band intensity b1i0_63.7 ([2]; High dose, 1d): 98.18
- band intensity b1i0_63.7 ([2]; High dose, 3d): 115.1
- band intensity b1i0_63.7 ([2]; Low dose, 1d): 155.4
- band intensity b1i0_63.7 ([2]; Low dose, 3d): 104.2
- band intensity b1i0_63.7 ([2]; Low dose, 7d): 204.2
- band intensity b1i0_69.4 ([3]; High dose, 1d): 194.3
- band intensity b1i0_69.4 ([3]; High dose, 3d): 219.1
- band intensity b1i0_69.4 ([3]; Low dose, 1d): 254
- band intensity b1i0_69.4 ([3]; Low dose, 3d): 292.1
- band intensity b1i0_69.4 ([3]; Low dose, 7d): 325.1
- band intensity b1i0_54.5 ([4]; High dose, 1d): 112.4
- band intensity b1i0_54.5 ([4]; High dose, 3d): 112.1
- band intensity b1i0_54.5 ([4]; Low dose, 1d): 102.8
- band intensity b1i0_54.5 ([4]; Low dose, 3d): 103.6
- band intensity b1i0_54.5 ([4]; Low dose, 7d): 108.2
- band intensity b1i0_57.4 ([5]; High dose, 1d): 1154
- band intensity b1i0_57.4 ([5]; High dose, 3d): 1296
- band intensity b1i0_57.4 ([5]; Low dose, 1d): 1235
- band intensity b1i0_57.4 ([5]; Low dose, 3d): 1367
- band intensity b1i0_57.4 ([5]; Low dose, 7d): 1345
- band intensity b1i0_53.0 ([6]; High dose, 1d): 110.8
- band intensity b1i0_53.0 ([6]; High dose, 3d): 118.4
- band intensity b1i0_53.0 ([6]; Low dose, 1d): 117.1
- band intensity b1i0_53.0 ([6]; Low dose, 3d): 98.96
- band intensity b1i0_53.0 ([6]; Low dose, 7d): 104.2
- band intensity b1i0_51.7 ([7]; High dose, 1d): 29.61
- band intensity b1i0_51.7 ([7]; High dose, 3d): 30.97
- band intensity b1i0_51.7 ([7]; Low dose, 1d): 24.27
- band intensity b1i0_51.7 ([7]; Low dose, 3d): 21.64
- band intensity b1i0_51.7 ([7]; Low dose, 7d): 19.76
- band intensity b1i0_62.5 ([8]; High dose, 1d): 67.75
- band intensity b1i0_62.5 ([8]; High dose, 3d): 84.85
- band intensity b1i0_62.5 ([8]; Low dose, 1d): 69.48
- band intensity b1i0_62.5 ([8]; Low dose, 3d): 57.9
- band intensity b1i0_62.5 ([8]; Low dose, 7d): 82.58

SMILES: CC(=O)[C@@]1(O)CC[C@H]2[C@@H]3C=C(Cl)C4=CC(=O)[C@@H]5C[C@@H]5[C@]4(C)[C@H]3CC[C@@]21C [Cyproterone]
- band intensity b1i0_60.7 ([1]; High dose, 1d): 53.9
- band intensity b1i0_60.7 ([1]; High dose, 3d): 46.42
- band intensity b1i0_60.7 ([1]; High dose, 7d): 73.61
- band intensity b1i0_60.7 ([1]; High dose, 14d): 57.48
- band intensity b1i0_60.7 ([1]; Low dose, 1d): 76.15
- band intensity b1i0_60.7 ([1]; Low dose, 3d): 72.42
- band intensity b1i0_60.7 ([1]; Low dose, 7d): 80.22
- band intensity b1i0_63.7 ([2]; High dose, 1d): 51.36
- band intensity b1i0_63.7 ([2]; High dose, 3d): 111.8
- band intensity b1i0_63.7 ([2]; High dose, 7d): 154.7
- band intensity b1i0_63.7 ([2]; High dose, 14d): 18.52
- band intensity b1i0_63.7 ([2]; Low dose, 1d): 68.2
- band intensity b1i0_63.7 ([2]; Low dose, 3d): 110.4
- band intensity b1i0_63.7 ([2]; Low dose, 7d): 146
- band intensity b1i0_69.4 ([3]; High dose, 1d): 254.9
- band intensity b1i0_69.4 ([3]; High dose, 3d): 250.7
- band intensity b1i0_69.4 ([3]; High dose, 7d): 317.9
- band intensity b1i0_69.4 ([3]; High dose, 14d): 528.3
- band intensity b1i0_69.4 ([3]; Low dose, 1d): 243.2
- band intensity b1i0_69.4 ([3]; Low dose, 3d): 270.7
- band intensity b1i0_69.4 ([3]; Low dose, 7d): 326.3
- band intensity b1i0_54.5 ([4]; High dose, 1d): 98.48
- band intensity b1i0_54.5 ([4]; High dose, 3d): 80.83
- band intensity b1i0_54.5 ([4]; High dose, 7d): 81.21
- band intensity b1i0_54.5 ([4]; High dose, 14d): 69.78
- band intensity b1i0_54.5 ([4]; Low dose, 1d): 94.41
- band intensity b1i0_54.5 ([4]; Low dose, 3d): 93.73
- band intensity b1i0_54.5 ([4]; Low dose, 7d): 98.2
- band intensity b1i0_57.4 ([5]; High dose, 1d): 1105
- band intensity b1i0_57.4 ([5]; High dose, 3d): 1021
- band intensity b1i0_57.4 ([5]; High dose, 7d): 1105
- band intensity b1i0_57.4 ([5]; High dose, 14d): 775.5
- band intensity b1i0_57.4 ([5]; Low dose, 1d): 1285
- band intensity b1i0_57.4 ([5]; Low dose, 3d): 1338
- band intensity b1i0_57.4 ([5]; Low dose, 7d): 1437
- band intensity b1i0_53.0 ([6]; High dose, 1d): 93.39
- band intensity b1i0_53.0 ([6]; High dose, 3d): 99.72
- band intensity b1i0_53.0 ([6]; High dose, 7d): 99.01
- band intensity b1i0_53.0 ([6]; High dose, 14d): 40.97
- band intensity b1i0_53.0 ([6]; Low dose, 1d): 111.6
- band intensity b1i0_53.0 ([6]; Low dose, 3d): 99.85
- band intensity b1i0_53.0 ([6]; Low dose, 7d): 99.01
- band intensity b1i0_51.7 ([7]; High dose, 1d): 35.07
- band intensity b1i0_51.7 ([7]; High dose, 3d): 32.34
- band intensity b1i0_51.7 ([7]; High dose, 7d): 22.63
- band intensity b1i0_51.7 ([7]; High dose, 14d): 19.9
- band intensity b1i0_51.7 ([7]; Low dose, 1d): 19.27
- band intensity b1i0_51.7 ([7]; Low dose, 3d): 21.87
- band intensity b1i0_51.7 ([7]; Low dose, 7d): 12.77
- band intensity b1i0_62.5 ([8]; High dose, 1d): 49.19
- band intensity b1i0_62.5 ([8]; High dose, 3d): 64.93
- band intensity b1i0_62.5 ([8]; High dose, 7d): 71.82
- band intensity b1i0_62.5 ([8]; High dose, 14d): 148.3
- band intensity b1i0_62.5 ([8]; Low dose, 1d): 62.41
- band intensity b1i0_62.5 ([8]; Low dose, 3d): 59.37
- band intensity b1i0_62.5 ([8]; Low dose, 7d): 70.85
